In patent US9145414B2, “1,2,4-triazine-6-carboxamide derivative” (TAIHO PHARMACEUTICAL CO., LTD., priority 2011, dated 2015):
Where two headings read alike, the source gives them in different places.

How the values were obtained:
human Syk protein = human Syk protein (Homo sapiens (Human), UniProt P43405); assay: Syk kinase inhibition test; type: biochemical; conditions: Table 95; read-out: SYK inhibitory activity IC50
Experimental: Finally, phosphorylated peptides and non-phosphorylated peptides were separated therebetween using LabChip™ 3000 system (Caliper Life Sciences, Inc., excitation wavelength: 488 nm, detection wavelength: 530 nm). Their respective amounts were measured, and the rate of phosphorylation reaction was then determined from the ratio between the amounts. The concentration at which the compound can inhibit 50% phosphorylation reaction is defined as an IC50 value (μM).
Also, known 1,2,4-triazine-6-carboxamide derivatives A, B, and C (WO2000/075113 (A: compound No. 121 and B: compound No. 154) and WO2000/076980 (C: compound No. 39)) were synthesized as control compounds. Their IC50 values (μM) were calculated in the same way as above and then compared with that of the compound of the present invention.

[1] = system: SU-DHL-6 cells (diffuse large-cell lymphoma cell line); assay: Cell growth inhibition test; type: cell-based; conditions: read-out: Cell growth inhibition IC50
Experimental: The compound of the present invention was serially diluted with dimethyl sulfoxide and then added to an RPMI1640 medium containing 10% FBS. Each resulting solution was added at a concentration of 100 μl/well to the preceding SU-DHL-6 cell culture plate (final concentration of the compound: 10, 3, 1, 0.3, 0.1, 0.03, 0.01, and 0.003 μM). The cells were cultured at 37° C. for 3 days in an incubator containing 5% CO2. The cells thus cultured were left at room temperature for 30 minutes and then centrifuged at 1500 rpm for 3 minutes using a centrifuge (Hitachi Koki Co., Ltd., Himac CF7D2). A 100 μl aliquot of the supernatant was removed from each well to allow 100 μl of the cell culture solution to remain therein. This 100 μl of the remaining cell culture solution was supplemented with an equal amount of CellTiter-Glo Luminescent Cell Viability Assay (Promega KK, Cat#: G7573), and the mixture was then shaken for 1 minute using a plate mixer. The reaction solution was left in the dark for 10 minutes. Then, luminescence intensity derived from live cells of each well was measured using a microplate reader (PerkinElmer Inc., ARVOsx). […] Likewise, the IC50 values (μM) of the control compounds were also calculated and then compared with that of the compound of the present invention. Rate of cell growth inhibition(%)=(C−T)/C×100 T: luminescence intensity (count per second) of a well supplemented with the test compound C: luminescence intensity (count per second) of a well non-supplemented with the test compound

[2] = Homo sapiens, 72 h, SU-DHL-6 cells, 3 days culture, Table 96
[3] = SU-DHL-6 cells, 3 days culture, Table 96

Compound	IC50 (human Syk protein)	IC50 [1, 2]	IC50 [1, 3]	IC50 ([1]; Homo sapiens, SU-DHL-6, 72 h)
Cn1cc(-n2ccc3c(Nc4nc(N[C@@H]5CCCC[C@@H]5N)nnc4C(N)=O)cccc32)cn1 [Example 67, 3-(((1R,2S)-2-aminocyclohexyl)amino)-5-((1-(1-methyl-1H-pyrazol-4-yl)-1H-indol-4-yl)amino)-1,2,4-triazine-6-carboxamide]	0.26 nM	49 nM	–	–
NC(=O)c1nnc(N[C@@H]2CCOC[C@@H]2N)nc1Nc1ccc2cnn(C(F)F)c2c1 [Example 170]	0.58 nM	178 nM	–	–
Cc1cc(Nc2nc(N[C@@H]3CCOC[C@@H]3N)nnc2C(N)=O)cc2cn(C(C)(C)C)nc12 [Example 61, 3-(((3R,4R)-3-aminotetrahydro-2H-pyran-4-yl)amino)-5-((2-(tert-butyl)-7-methyl-2H-indazol-5-yl)amino)-1,2,4-triazine-6-carboxamide]	0.37 nM	164 nM	–	–
NC(=O)c1nnc(N[C@@H]2CCCC[C@@H]2N)nc1Nc1ccc2sccc2c1 [Example 220]	0.26 nM	180 nM	–	–
NC(=O)c1nnc(N[C@@H]2CCCC[C@@H]2N)nc1Nc1cccc2c1ccn2C1COC1 [Example 34, 3-((1R,2S)-2-aminocyclohexylamino)-5-(1-(oxetan-3-yl)-H-indol-4-ylamino)-1,2,4-triazine-6-carboxamide]	0.42 nM	65 nM	–	–
NC(=O)c1nnc(N[C@@H]2CCCC[C@@H]2N)nc1Nc1cc(-c2ccccc2)cs1 [Example 164]	0.29 nM	92 nM	–	–
COC[C@H](N)[C@@H](C)Nc1nnc(C(N)=O)c(Nc2cc(-c3ccccc3)c3nn(C)cc3c2)n1 [Example 258]	0.29 nM	60 nM	–	–
NC(=O)c1ccc(NC2CCCCC2N)cc1Nc1cccc2c1OCO2 (stereo not shown) [B, reference compound]	6.8 nM	–	1900 nM	–
Cc1cc(Nc2nc(N[C@@H]3CCCC[C@@H]3N)nnc2C(N)=O)cc2cccnc12 [Example 259, 3-(((1R,2S)-2-aminocyclohexyl)amino)-5-((8-methylquinolin-6-yl)amino)-1,2,4-triazine-6-carboxamide]	0.33 nM	75 nM	–	–
NC(=O)c1nnc(N[C@@H]2CCCC[C@@H]2N)nc1Nc1cccc2c1ccn2[C@H]1CC[C@H](O)CC1 [Example 73, 3-(((1R,2S)-2-aminocyclohexyl)amino)-5-((1-(trans-4-hydroxycyclohexyl)-1H-indol-4-yl)amino)-1,2,4-triazine-6-carboxamide]	0.37 nM	53 nM	–	–
COC[C@H](N)[C@@H](C)Nc1nnc(C(N)=O)c(Nc2cc(C)c3nn(C(C)(C)C)cc3c2)n1 [Example 274]	0.95 nM	155 nM	–	–
CCn1cc2cc(Nc3nc(N[C@@H]4CCCC[C@@H]4N)nnc3C(N)=O)cc(-n3cccn3)c2n1 [Example 79, 3-(((1R,2S)-2-aminocyclohexyl)amino)-5-((2-ethyl-7-(1H-pyrazol-1-yl)-2H-indazol-5-yl)amino)-1,2,4-triazine-6-carboxamide]	0.37 nM	93 nM	–	–
CC[C@H](N)CNc1nnc(C(N)=O)c(Nc2cccc3sccc23)n1 [Example 245]	0.35 nM	158 nM	–	–
NC(=O)c1nnc(N[C@@H]2CCCC[C@@H]2N)nc1Nc1cc(-c2ccccn2)cs1 [Example 77, 3-(((1R,2S)-2-aminocyclohexyl)amino)-5-((4-(pyridin-2-yl)thiophen-2-yl)amino)-1,2,4-triazine-6-carboxamide]	0.42 nM	82 nM	–	–
Cn1cc2cc(Nc3nc(N[C@@H]4CCCC[C@@H]4N)nnc3C(N)=O)cc(-c3ccccc3)c2n1 [Example 65, 3-(((1R,2S)-2-aminocyclohexyl)amino)-5-((2-methyl-7-phenyl-2H-indazol-5-yl)amino)-1,2,4-triazine-6-carboxamide]	0.23 nM	24 nM	–	–
Cc1cc(Nc2nc(N[C@@H]3CCOC[C@@H]3N)nnc2C(N)=O)c2ccn(C)c2c1 [Example 267]	0.41 nM	128 nM	–	–
Cn1cc2cc(Nc3nc(N[C@@H]4CCOC[C@@H]4N)nnc3C(N)=O)cc(-c3ccccc3)c2n1 [Example 257, 3-(((3R,4R)-3-aminotetrahydro-2H-pyran-4-yl)amino)-5-((2-methyl-7-phenyl-2H-indazol-5-yl)amino)-1,2,4-triazine-6-carboxamide]	0.38 nM	49 nM	–	–
NC(=O)c1nnc(N[C@@H]2CCCC[C@@H]2N)nc1Nc1cccc2c1ccn2CCO [Example 93, 3-(((1R,2S)-2-aminocyclohexyl)amino)-5-((1-(2-hydroxyethyl)-1H-indol-4-yl)amino)-1,2,4-triazine-6-carboxamide]	0.67 nM	149 nM	–	–
NC(=O)c1nnc(N[C@@H]2CCCC[C@@H]2N)nc1Nc1csc2ccccc12 [Example 212]	0.29 nM	128 nM	–	–
[2H]C([2H])([2H])C([2H])([2H])n1ncc2cc(Nc3nc(N[C@H]4CCCNC4)nnc3C(N)=O)ccc21 [Example 7, (S)-5-(1-(ethyl-d5)-1H-indazol-5-ylamino)-3-(piperidin-3-ylamino)-1,2,4-triazine-6-carboxamide diformate]	0.92 nM	–	–	174 nM
NC(=O)c1nnc(N[C@@H]2CCCC[C@@H]2N)nc1Nc1ccc2nn(C(F)F)cc2c1 [Example 57, 3-((1R,2S)-2-aminocyclohexylamino)-5-(2-(difluoromethyl)-2H-indazol-5-ylamino)-1,2,4-triazine-6-carboxamide]	0.52 nM	179 nM	–	–
CCn1ncc2ccc(Nc3nc(N[C@@H]4CCCC[C@@H]4N)nnc3C(N)=O)cc21 [Example 154]	0.43 nM	138 nM	–	–
NC(=O)c1nnc(N[C@@H]2CCCC[C@@H]2N)nc1Nc1cccc2c1ccn2C(F)F [Example 26, 3-((1R,2S)-2-aminocyclohexylamino)-5-(1-(difluoromethyl)-1H-indol-4-ylamino)-1,2,4-triazine-6-carboxamide]	0.22 nM	41 nM	–	–
Cc1cc(Nc2nc(N[C@@H]3CCCC[C@@H]3N)nnc2C(N)=O)c2ccn([C@H]3CC[C@H](O)CC3)c2c1 [Example 78]	0.53 nM	85 nM	–	–
NC(=O)c1nnc(N[C@@H]2CCCC[C@@H]2N)nc1Nc1cccc2c1ccn2CCF [Example 35, 3-((1R,2S)-2-aminocyclohexylamino)-5-(1-(2-fluoroethyl)-1H-indol-4-ylamino)-1,2,4-triazine-6-carboxamide]	0.51 nM	107 nM	–	–
NC(=O)c1ccc(NC2CCCCC2N)cc1Nc1ccccc1Br (stereo not shown) [A, reference compound]	33 nM	–	2000 nM	–
Cn1ccc(-n2ccc3c(Nc4nc(N[C@@H]5CCCC[C@@H]5N)nnc4C(N)=O)cccc32)n1 [Example 25, 3-((1R,2S)-2-aminocyclohexylamino)-5-(1-(1-methyl-1H-pyrazol-3-yl)-1H-indol-4-ylamino)-1,2,4-triazine-6-carboxamide]	0.36 nM	100 nM	–	–
Cc1cc(Nc2nc(N[C@@H]3CCCC[C@@H]3N)nnc2C(N)=O)c2ccn(C)c2c1 [Example 60, 3-(((1R,2S)-2-aminocyclohexyl)amino)-5-((1,6-dimethyl-1H-indol-4-yl)amino)-1,2,4-triazine-6-carboxamide]	0.33 nM	106 nM	–	–
Cn1ccc2c(Nc3nc(N[C@@H]4CCCC[C@@H]4N)nnc3C(N)=O)cccc21 [Example 3, 3-((1R,2S)-2-aminocyclohexylamino)-5-(1-methyl-H-indol-4-ylamino)-1,2,4-triazine-6-carboxamide]	0.36 nM	91 nM	–	–
